According to BigSolDB 2.1:

SMILES: NC(=NCCCCCCN=C(N)/N=C(\N)Nc1ccc(Cl)cc1)/N=C(\N)Nc1ccc(Cl)cc1
- solubility (mole fraction) (in 1,4-dioxane, 288.15 K): 0.000569
- solubility (mole fraction) (in 1,4-dioxane, 293.15 K): 0.000674
- solubility (mole fraction) (in 1,4-dioxane, 298.15 K): 0.000764
- solubility (mole fraction) (in 1,4-dioxane, 303.15 K): 0.000888
- solubility (mole fraction) (in 1,4-dioxane, 308.15 K): 0.00102
- solubility (mole fraction) (in 1,4-dioxane, 313.15 K): 0.00117
- solubility (mole fraction) (in 1,4-dioxane, 318.15 K): 0.00133
- solubility (mole fraction) (in 1,4-dioxane, 323.15 K): 0.00153
- solubility (mole fraction) (in DMF, 283.15 K): 0.00795
- solubility (mole fraction) (in DMF, 288.15 K): 0.00941
- solubility (mole fraction) (in DMF, 293.15 K): 0.0111
- solubility (mole fraction) (in DMF, 298.15 K): 0.0131
- solubility (mole fraction) (in DMF, 303.15 K): 0.0153
- solubility (mole fraction) (in DMF, 308.15 K): 0.018
- solubility (mole fraction) (in DMF, 313.15 K): 0.0206
- solubility (mole fraction) (in DMF, 318.15 K): 0.0241
- solubility (mole fraction) (in DMF, 323.15 K): 0.0277
- solubility (mole fraction) (in ethanol, 283.15 K): 0.000405
- solubility (mole fraction) (in ethanol, 288.15 K): 0.000471
- solubility (mole fraction) (in ethanol, 293.15 K): 0.000539
- solubility (mole fraction) (in ethanol, 298.15 K): 0.000613
- solubility (mole fraction) (in ethanol, 303.15 K): 0.000706
- solubility (mole fraction) (in ethanol, 308.15 K): 0.000803
- solubility (mole fraction) (in ethanol, 313.15 K): 0.000914
- solubility (mole fraction) (in ethanol, 318.15 K): 0.00103
- solubility (mole fraction) (in ethanol, 323.15 K): 0.00117
- solubility (mole fraction) (in methanol, 283.15 K): 0.000656
- solubility (mole fraction) (in methanol, 288.15 K): 0.000751
- solubility (mole fraction) (in methanol, 293.15 K): 0.000846
- solubility (mole fraction) (in methanol, 298.15 K): 0.000967
- solubility (mole fraction) (in methanol, 303.15 K): 0.00108
- solubility (mole fraction) (in methanol, 308.15 K): 0.00123
- solubility (mole fraction) (in methanol, 313.15 K): 0.00137
- solubility (mole fraction) (in methanol, 318.15 K): 0.00154
- solubility (mole fraction) (in methanol, 323.15 K): 0.00173
- solubility (mole fraction) (in water, 283.15 K): 1.45e-06
- solubility (mole fraction) (in water, 288.15 K): 2.03e-06
- solubility (mole fraction) (in water, 293.15 K): 2.79e-06
- solubility (mole fraction) (in water, 298.15 K): 3.84e-06
- solubility (mole fraction) (in water, 303.15 K): 5.21e-06
- solubility (mole fraction) (in water, 308.15 K): 7.06e-06
- solubility (mole fraction) (in water, 313.15 K): 9.32e-06
- solubility (mole fraction) (in water, 318.15 K): 1.23e-05
- solubility (mole fraction) (in water, 323.15 K): 1.62e-05
